From patent publication US8618094B2, “Fused substituted aminopyrrolidine derivative” (Daiichi Sankyo Company, Limited, priority 2007, dated 2013)
≈ marks a conversion by molar mass, not a printed value. Where two headings read alike, the source gives them in different places.

Key:
S. aureus FDA 209-P = test: Antibacterial activity (MIC), standard method of the Japanese Society of Chemotherapy; assay type: cell-based; details: Staphylococcus aureus, FDA209
Experimental: (§1) Antibacterial activity of the compounds of the present invention was measured in accordance with the standard method specified by the Japanese Society of Chemotherapy.

[1] = system: S. pyogenes JCM5674(ATCC12344); test: as above; assay type: cell-based; details: Streptococcus pyogenes
Experimental: as §1

P. aeruginosa PAO1 = test: as above; assay type: cell-based; details: Pseudomonas aeruginosa
Experimental: as §1

[2] = system: M(B). Caterrhalis ATCC25238; test: as above; assay type: cell-based
Experimental: as §1

E. cloacae 03400 = test: as above; assay type: cell-based; details: Enterobacter cloacae
Experimental: as §1

E. faecalis 19433 = test: as above; assay type: cell-based; details: Enterococcus faecalis
Experimental: as §1

K. pneumoniae TYPE 1 = test: as above; assay type: cell-based; details: Klebsiella pneumoniae, TYPE1
Experimental: as §1

H. influenzae ATCC49247 = test: as above; assay type: cell-based; details: Haemophilus influenzae
Experimental: as §1

E. coli NIHJ = test: as above; assay type: cell-based; details: Escherichia coli
Experimental: as §1

S. epidermidis 56500 = test: as above; assay type: cell-based; details: Staphylococcus epidermidis
Experimental: as §1

S. pneumoniae J24 = test: as above; assay type: cell-based; details: Streptococcus pneumoniae
Experimental: as §1

S. pneumoniae 104835 = test: as above; assay type: cell-based; details: Streptococcus pneumoniae
Experimental: as §1

S. aureus 870307 = test: as above; assay type: cell-based; details: Staphylococcus aureus
Experimental: as §1

P. mirabilis 08103 = test: as above; assay type: cell-based; details: Proteus mirabilis
Experimental: as §1

S. marcescens 10100 = test: as above; assay type: cell-based; details: Serratia marcescens
Experimental: as §1

mouse bone marrow = test: Mouse bone marrow micronucleus test after intravenous administration; assay type: in vivo
Description: The compound represented by the formula 365 was confirmed to be positive for induction of micronuclei in a mouse bone marrow micronucleus test after intravenous administration.

[3] = Mouse phototoxicity test after intravenous administration; assay type: in vivo
[4] = M(B). Caterrhalis ATCC25238 (first half of Table 2), read-out: MIC, M(B). Caterrhalis ATCC25238
[5] = H. influenzae ATCC49247 (first half of Table 2), read-out: MIC, H. influenzae ATCC49247

Row | Structure (SMILES) | MIC (S. aureus FDA 209-P) | MIC [1] | MIC (P. aeruginosa PAO1) | MIC [2, 4] | MIC (E. cloacae 03400) | MIC (E. faecalis 19433) | MIC (K. pneumoniae TYPE 1) | MIC (H. influenzae ATCC49247; [5]) | MIC (E. coli NIHJ) | MIC (S. epidermidis 56500) | MIC (S. pneumoniae J24) | MIC (S. pneumoniae 104835) | MIC (S. aureus 870307) | MIC (P. mirabilis 08103) | MIC (S. marcescens 10100) | melting point | MIC ([2]; M(B). Caterrhalis [sic] ATCC49247 (Table 2), read-out: MIC, M(B). Caterrhalis ATCC49247) | MIC (H. influenzae ATCC49247; ATCC 25238 / ATCC 49247, H. influenzae ATCC25238 as printed (second half of Table 2), read-out: MIC, H. influenzae ATCC25238) | induction of micronuclei (mouse bone marrow) | phototoxicity [3]
1 | COc1c(N2C[C@H]3C4(CC4)C[C@@]3(N)C2)c(F)cc2c(=O)c(C(=O)O)cn([C@@H]3C[C@@H]3F)c12 [Example 10, 7-[(1S,5R)-1-Amino-6-spirocyclopropane-3-azabicyclo[3.2.0]heptan-3-yl]-1-[(1R,2S)-2-fluorocyclopropyl]-6-fluoro-1,4-dihydro-8-methoxy-4-oxoquinoline-3-carboxylic acid] | 0.006 µg/mL (≈ 0.0139 µM) | 0.025 µg/mL (≈ 0.0579 µM) | 0.78 µg/mL (≈ 1.81 µM) | 0.025 µg/mL (≈ 0.0579 µM) | 0.025 µg/mL (≈ 0.0579 µM) | 0.1 µg/mL (≈ 0.232 µM) | 0.2 µg/mL (≈ 0.464 µM) | 0.012 µg/mL (≈ 0.0278 µM) | 0.025 µg/mL (≈ 0.0579 µM) | 0.025 µg/mL (≈ 0.0579 µM) | 0.025 µg/mL (≈ 0.0579 µM) | 0.2 µg/mL (≈ 0.464 µM) | 0.1 µg/mL (≈ 0.232 µM) | 0.05 µg/mL (≈ 0.116 µM) | 0.2 µg/mL (≈ 0.464 µM) | 182 to 203 °C (dec.) | – | – | – | –
2 | COc1c(N2C[C@]3(N)CCC[C@]3(F)C2)c(F)cc2c(=O)c(C(=O)O)cn([C@@H]3C[C@@H]3F)c12 [Example 15, 7-[(1R,5S)-1-Amino-5-fluoro-3-azabicyclo[3.3.0]octan-3-yl]-6-fluoro-1-[(1R,2S)-2-fluorocyclopropan-1-yl]-1,4-dihydro-8-methoxy-4-oxoquinoline-3-carboxylic acid] | 0.012 µg/mL (≈ 0.0274 µM) | 0.05 µg/mL (≈ 0.114 µM) | 0.78 µg/mL (≈ 1.78 µM) | 0.025 µg/mL (≈ 0.0572 µM) | 0.025 µg/mL (≈ 0.0572 µM) | 0.2 µg/mL (≈ 0.457 µM) | 0.05 µg/mL (≈ 0.114 µM) | ≤ 0.003 µg/mL | 0.006 µg/mL (≈ 0.0137 µM) | 0.05 µg/mL (≈ 0.114 µM) | 0.05 µg/mL (≈ 0.114 µM) | 0.39 µg/mL (≈ 0.892 µM) | 0.39 µg/mL (≈ 0.892 µM) | 0.025 µg/mL (≈ 0.0572 µM) | 0.2 µg/mL (≈ 0.457 µM) | 191 to 195 °C (dec.) | – | – | – | –
3 | COc1c(N2C[C@H]3CC=C[C@@]3(N)C2)c(F)cc2c(=O)c(C(=O)O)cn([C@@H]3C[C@@H]3F)c12 [Example 24, 7-[(1S,5R)-1-Amino-3-azabicyclo[3.3.0]oct-7-en-3-yl]-6-fluoro-1-[(1R,2S)-2-fluorocyclopropyl]-8-methoxy-1,4-dihydro-4-oxoquinoline-3-carboxylic acid] | 0.025 µg/mL (≈ 0.0599 µM) | 0.1 µg/mL (≈ 0.24 µM) | 0.39 µg/mL (≈ 0.934 µM) | 0.05 µg/mL (≈ 0.12 µM) | 0.025 µg/mL (≈ 0.0599 µM) | 0.1 µg/mL (≈ 0.24 µM) | 0.1 µg/mL (≈ 0.24 µM) | 0.006 µg/mL (≈ 0.0144 µM) | 0.025 µg/mL (≈ 0.0599 µM) | 0.1 µg/mL (≈ 0.24 µM) | 0.05 µg/mL (≈ 0.12 µM) | 0.39 µg/mL (≈ 0.934 µM) | 0.78 µg/mL (≈ 1.87 µM) | 0.025 µg/mL (≈ 0.0599 µM) | 0.2 µg/mL (≈ 0.479 µM) | 206 to 208 °C | – | – | – | –
4 | Cc1c(N2C[C@@H]3CCOC[C@@]3(N)C2)c(F)cc2c(=O)c(C(=O)O)cn([C@@H]3C[C@@H]3F)c12 [Example 44, 7-[(1S,6S)-1-Amino-3-oxa-8-azabicyclo[4,3,0]nonan-8-yl]-6-fluoro-1-[(1R,2S)-2-fluorocyclopropyl]-1,4-dihydro-8-methyl-4-oxoquinoline-3-carboxylic acid] | 0.012 µg/mL (≈ 0.0286 µM) | 0.05 µg/mL (≈ 0.119 µM) | 0.39 µg/mL (≈ 0.93 µM) | – | 0.006 µg/mL (≈ 0.0143 µM) | 0.1 µg/mL (≈ 0.238 µM) | 0.025 µg/mL (≈ 0.0596 µM) | – | ≤ 0.003 µg/mL | 0.025 µg/mL (≈ 0.0596 µM) | 0.05 µg/mL (≈ 0.119 µM) | 0.39 µg/mL (≈ 0.93 µM) | 0.2 µg/mL (≈ 0.477 µM) | 0.025 µg/mL (≈ 0.0596 µM) | 0.05 µg/mL (≈ 0.119 µM) | 159 to 161 °C | 0.006 µg/mL (≈ 0.0143 µM) | ≤ 0.003 µg/mL | – | –
5 | N[C@@]12CCC[C@@H]1CN(c1c(F)cc3c(=O)c(C(=O)O)cn(C4CC4)c3c1F)C2 [formula 365, reference compound] | – | – | – | – | – | – | – | – | – | – | – | – | – | – | – | – | – | – | positive | positive
